Results: patent US11453671B2, “Pyrazolopyrimidine inhibitors of JAK kinases and uses thereof” (Genentech, Inc., priority 2020, dated 2022)

What was measured:
[1] = Mouse lung tissue binding (equilibrium dialysis, RED); type: in vitro ADME; conditions: for Mouse LTB %: mouse lung tissue binding, % bound (Table 3); for Lung tissue binding, %: Table 5, sulfone-sulfide analog pairs
Experimental: Mouse lung tissue binding. A high bound fraction or percentage of JAK1/JAK2 inhibitors to lung tissue may be undesirable since it can reduce the amount of free drug available to inhibit JAK1 or JAK2.
(a) Tissue binding experiments were performed in triplicate (n=3) using a Single-Use RED Plate by following the standard protocol. Initially, individual drugs were spiked to tissue homogenates (pH 7.4) to achieve a final concentration of 1 μM, and then 300 μL of drug-tissue homogenate mixtures were transferred to the donor wells of the RED plate which was pre-loaded with 500 μL phosphate buffer saline (133 mM) on the receiver wells. The RED plate was sealed with a gas permeable membrane and placed in a shaking incubator (450 rpm, VWR Symphony™) for 6 hr at 37° C. with 5% CO2. At the end of incubation, aliquots of 30 μL samples were taken out of the RED device and matrix equalized with an equal volume of tissue homogenates or buffer, and resulting samples were then immediately quenched with ice cold acetonitrile (sample:acetonitrile 1:4) containing either propranolol or labetalol as an internal standard. After shaking for 15 min at 500 rpm on a Thermo Scientific Compact Digital MicroPlate Shaker, all samples were then subjected to centrifugation at 3700 rpm for 15 min (Beckman Coulter Allegra X 12R) to remove plasma protein. Subsequently, supernatants were collected and then diluted with an equal volume of water prior to LC-MS/MS analysis.
(b) In an alternate procedure, the extent of lung tissue binding of test compound to mouse lung homogenate may also be determined by equilibrium dialysis using Pierce RED (rapid equilibrium dialysis) devices (Fisher Scientific 89811 & 89809). A 10 mM solution of compound in DMSO was prepared and diluted to 1 mM with DMSO. An aliquot of this 1 mM (4 μL) was added into lung homogenate (dilution factor of 1:9, lung tissue:potassium phosphate buffer (0.05 M, pH 7.4)) to give a final compound incubation concentration of 5 μM with solvent accounting for 0.5% (v/v) of the final incubation volume.
For each assay, the percentage lung tissue bound was determined in triplicate. Lung homogenate (200 μL) was loaded into one side of a RED device insert, in triplicate, and 350 μL of potassium phosphate buffer was loaded into the other side. The RED devices were sealed and incubated for 4 hours at ca. 37° C. on an orbital shaker (˜150 rpm).
Following incubation, an aliquot of lung homogenate (8 μL) and an aliquot of dialysate (72 μL) were matrix matched (lung homogenate with 72 μL phosphate buffer, dialysate with 8 μL lung homogenate) ahead of analysis. Protein was precipitated from the samples with the addition of 160 μL of acetonitrile containing internal standard. The same matrix matching and protein precipitation procedure was performed on lung homogenate aliquots sampled at the start of the experiment (t=0 min samples), for the assessment of the mass balance. The quenched samples were centrifuged (4000 rpm, 30 min, 4° C.) and the resultant supernatant diluted with water (3:1 (v/v), supernatant: water) and the samples analysed for parent compound by liquid chromatography mass spectrometry assay.
The unbound fraction (fu) in lung homogenate was determined from the ratio of the dialysate to homogenate peak area, corrected to take into account the lung homogenate dilution (D) to enable an estimate of whole lung tissue binding using the following equations: Undiluted fu=(1/D)/[((1/Apparent fu)−1)+(1/D)] Corrected fraction bound (%)=(1-undiluted fu)*100

[2] = target: Recombinant human JAK2 kinase domain protein (Residues 812-1132) (Homo sapiens, UniProt O60674); experiment: JAK2 biochemical assay (microfluidic mobility shift, peptide phosphorylation); conditions: Enzyme JAK2 Ki (nM), 25 μM ATP, 0.2 nM total JAK2
Experimental: JAK1 and JAK2 Biochemical Assays
The in vitro biochemical assays quantify JAK-catalyzed phosphorylation of a synthetic peptide, as detected using a LabChip® EZ Reader II microfluidic mobility shift instrument (PerkinElmer; Waltham, Mass.). […] Y-1B is fluorescently labeled on the N-terminus with 5-FAM (5-carboxyfluorescein) and contains a single tyrosine residue (Y) that can be phosphorylated by JAK activity. The substrate peptide stock is prepared in DMSO at 5 mM.
In each titration experiment, test compound was tested in duplicate at each of the twelve concentrations. Blank reactions contained ATP, peptide, and DMSO, but no JAK or test compound, whereas uninhibited control reactions contained ATP, peptide, JAK, and DMSO, but no test compound.
Peptide plus ATP mixture (24 μL) was added to 1 μL of test compound in DMSO (or DMSO alone). The reactions were initiated by adding 25 μL of JAK enzyme to the inhibitor/peptide/ATP mixture before thoroughly mixing the resultant solution. Reactions were incubated at room temperature (22° C.-23° C.) in a final volume of 50 μL per well in 384-well plates.
In each reaction, the residual Y-1B substrate and the phospho-peptide product generated were separated using the EZ Reader II instrument. Electrophoretic separation of molecules of product from molecules of substrate was achieved using downstream and upstream voltages of −500 and −2600 V, respectively, at an operating pressure of −1.3 psi.
The extent (or percent) of conversion of substrate to product was calculated from the corresponding peak heights in the electropherogram using HTS Well Analyzer software, Version 5.2 (PerkinElmer), and the following equation (Equation 1): % conversion=[P÷(S+P)]×100 Equation 1 where S and P represent the peak heights of the substrate and product, respectively. After any baseline signal from blank wells containing no JAK was subtracted from the signal of all test wells, the % conversion data were converted to fractional activity as shown in Equation 2, where vi and vo are the % conversion in the presence and absence of test compound, respectively.

[3] = Cell cytotoxicity assay A549 (CellTiter-Glo, 72 hours); type: cell-based; conditions: human, A549 cells, Table 3; 72 hours, top concentration of 50 μM; read-out: Cytotox A549 EC50
Experimental: A549 (ATCC® CCL-185™), Jurkat clone E6-1 (ATCC® TIB-152™) and HEK-293T (ATCC® CRL-1573™) cells maintained at a sub-confluent density in T175 flasks were used. Cells in exponential growth phase were plated (450 cells in 45 μL of medium) in Greiner 384-well black/clear tissue culture treated plates (Greiner Catalog No. 781091). After dispensing cells, plates were allowed to equilibrate at room temperature for 30 minutes, after which time the cell plates were placed overnight in a 37° C. CO2 and humidity-controlled incubator. The following day, cells were treated with test agent diluted in 100% DMSO (0.5% final DMSO concentration on cells) with a 10-point titration and a top concentration of 50 μM. Cells and compounds were then incubated for 72 hours in a 37° C. CO2 and humidity-controlled incubator, after which time cell viability was measured by adding CellTiter-Glo® (Promega G7572) reagent to all wells. Plates were incubated at room temperature for 20 minutes and then the well luminescence was read on an EnVision plate reader (Perkin Elmer Life Sciences).

Recombinant human JAK2 kinase domain protein (Residues 812-1132), sequence (O60674 812-1132): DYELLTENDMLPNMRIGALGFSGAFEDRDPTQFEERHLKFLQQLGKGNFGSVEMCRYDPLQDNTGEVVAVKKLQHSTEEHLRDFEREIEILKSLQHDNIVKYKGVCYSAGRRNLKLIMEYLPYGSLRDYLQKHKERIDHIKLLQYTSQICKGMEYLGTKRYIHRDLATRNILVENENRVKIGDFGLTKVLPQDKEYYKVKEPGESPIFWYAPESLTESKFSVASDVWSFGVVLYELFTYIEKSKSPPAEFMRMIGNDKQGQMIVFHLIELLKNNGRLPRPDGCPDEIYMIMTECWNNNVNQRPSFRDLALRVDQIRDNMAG

**Q.** For CC(CO)S(=O)(=O)c1ccc(OC(F)F)c(-c2nn(C)cc2NC(=O)c2cnn3cccnc23)c1 (single isomer, unassigned) [Example 24, N-[3-[2-(difluoromethoxy)-5-(2-hydroxy-1-methyl-ethyl)sulfonyl-phenyl]-1-methyl-pyrazol-4-yl]pyrazolo[1,5-a]pyrimidine-3-carboxamide], which “Mouse LTB %” value [1] is on record?
**A.** The value was 81.7%.

**Q.** And the Ki [2]?
**A.** Its Ki is 0.19 nM.

**Q.** For Cn1cc(NC(=O)c2cnn3cccnc23)c(-c2cc(S(=O)(=O)C3COC3)ccc2OC(F)F)n1 [Example 13, N-[3-[2-(difluoromethoxy)-5-(oxetan-3-ylsulfonyl)phenyl]-1-methyl-pyrazol-4-yl]pyrazolo[1,5-a]pyrimidine-3-carboxamide], which EC50 at 72 h [3] is on record?
**A.** Its EC50 at 72 h is 44000 nM.

**Q.** What about the “Lung tissue binding, %” value [1] of the same molecule?
**A.** Its value is 85.8%.

**Q.** What about the “Mouse LTB %” value [1] of the same molecule?
**A.** Its value is 85%.

**Q.** What about the Ki [2] of the same molecule?
**A.** Its Ki is 0.19 nM.

**Q.** Which results are given for CS(=O)(=O)c1ccc(OC(F)F)c(-c2nn(CC#N)cc2NC(=O)c2cnn3cccnc23)c1 [Example 28, N-[1-(cyanomethyl)-3-[2-(difluoromethoxy)-5-methylsulfonyl-phenyl]pyrazol-4-yl]pyrazolo[1,5-a]pyrimidine-3-carboxamide]?
**A.** EC50 at 72 h [3]: ≥ 50000 nM; Lung tissue binding, % [1]: 70.8%; Mouse LTB % [1]: 70.8%; Ki [2]: 0.14 nM

**Q.** What does the source list for C[C@H](Cn1cc(S(=O)(=O)c2ccc(OC(F)F)c(-c3nn(C)cc3NC(=O)c3cnn4cccnc34)c2)cn1)N(C)C [Example 59, N-[3-[2-(difluoromethoxy)-5-[1-[(2R)-2-(dimethylamino)propyl]pyrazol-4-yl]sulfonyl-phenyl]-1-methyl-pyrazol-4-yl]pyrazolo[1,5-a]pyrimidine-3-carboxamide]?
**A.** EC50 at 72 h [3]: 43000 nM; Ki [2]: 0.54 nM

**Q.** With Cn1cc(NC(=O)c2cnn3cccnc23)c(-c2cc(S(=O)(=O)C3CCCNC3)ccc2OC(F)F)n1 (single isomer, unassigned) [Example 37, N-[3-[2-(difluoromethoxy)-5-(3-piperidylsulfonyl)phenyl]-1-methyl-pyrazol-4-yl]pyrazolo[1,5-a]pyrimidine-3-carboxamide] as the molecule, how does the EC50 at 72 h [3] read?
**A.** Its EC50 at 72 h is at least 50000 nM.

**Q.** What about the “Mouse LTB %” value [1] of the same molecule?
**A.** The value was 90.1%.

**Q.** What about the Ki [2] of the same molecule?
**A.** Its Ki is 0.54 nM.

**Q.** For C[C@@H](O)CS(=O)(=O)c1ccc(OC(F)F)c(-c2nn(C)cc2NC(=O)c2cnn3cccnc23)c1 (stereo in doubt) [Example 25, N-[3-[2-(difluoromethoxy)-5-[rac-(2R)-2-hydroxypropyl]sulfonyl-phenyl]-1-methyl-pyrazol-4-yl]pyrazolo[1,5-a]pyrimidine-3-carboxamide], which EC50 at 72 h [3] is on record?
**A.** Its EC50 at 72 h is at least 50000 nM.

**Q.** And the “Mouse LTB %” value [1]?
**A.** The value was 85%.

**Q.** What about the Ki [2] of the same molecule?
**A.** Its Ki is 0.2 nM.

**Q.** With Cn1cc(NC(=O)c2cnn3cccnc23)c(-c2cc(S(=O)(=O)c3ccccc3)ccc2OC(F)F)n1 [Example 40, N-[3-[5-(benzenesulfonyl)-2-(difluoromethoxy)phenyl]-1-methyl-pyrazol-4-yl]pyrazolo[1,5-a]pyrimidine-3-carboxamide] as the molecule, how does the EC50 at 72 h [3] read?
**A.** Its EC50 at 72 h is at least 50000 nM.

**Q.** What about the “Mouse LTB %” value [1] of the same molecule?
**A.** Its value is 95.6%.

**Q.** And the Ki [2]?
**A.** The Ki was 0.11 nM.

**Q.** What does the source list for CN(C)S(=O)(=O)c1ccc(OC(F)F)c(-c2nn(C)cc2NC(=O)c2cnn3cccnc23)c1 [Example 30, N-[3-[2-(difluoromethoxy)-5-(dimethylsulfamoyl)phenyl]-1-methyl-pyrazol-4-yl]pyrazolo[1,5-a]pyrimidine-3-carboxamide]?
**A.** EC50 at 72 h [3]: 6100 nM; Mouse LTB % [1]: 83.1%; Ki [2]: 0.14 nM

**Q.** For CN(C)CCn1cc(S(=O)(=O)c2ccc(OC(F)F)c(-c3nn(C)cc3NC(=O)c3cnn4cccnc34)c2)cn1 [Example 49, N-[3-[2-(difluoromethoxy)-5-[1-[2-(dimethylamino)ethyl]pyrazol-4-yl]sulfonyl-phenyl]-1-methyl-pyrazol-4-yl]pyrazolo[1,5-a]pyrimidine-3-carboxamide], which EC50 at 72 h [3] is on record?
**A.** The EC50 at 72 h was 33000 nM.

**Q.** What about the “Mouse LTB %” value [1] of the same molecule?
**A.** Its value is 84.4%.

**Q.** And the Ki [2]?
**A.** Its Ki is 0.37 nM.

**Q.** Which EC50 at 72 h [3] does the source give for COCCS(=O)(=O)c1ccc(OC(F)F)c(-c2nn(C)cc2NC(=O)c2cnn3cccnc23)c1 [Example 14, N-[3-[2-(difluoromethoxy)-5-(2-methoxyethylsulfonyl)phenyl]-1-methyl-pyrazol-4-yl]pyrazolo[1,5-a]pyrimidine-3-carboxamide] here?
**A.** The EC50 at 72 h was at least 50000 nM.

**Q.** And the “Mouse LTB %” value [1]?
**A.** Its value is 80.1%.

**Q.** For Cn1cc(NC(=O)c2cnn3cccnc23)c(-c2cc(S(=O)(=O)N3CCC3)ccc2OC(F)F)n1 [Example 21, N-[3-[5-(azetidin-1-ylsulfonyl)-2-(difluoromethoxy)phenyl]-1-methyl-pyrazol-4-yl]pyrazolo[1,5-a]pyrimidine-3-carboxamide], which EC50 at 72 h [3] is on record?
**A.** The EC50 at 72 h was 7500 nM.

**Q.** What about the “Mouse LTB %” value [1] of the same molecule?
**A.** Its value is 83%.

**Q.** What about the Ki [2] of the same molecule?
**A.** Its Ki is 0.16 nM.

**Q.** With CN(CCO)S(=O)(=O)c1ccc(OC(F)F)c(-c2nn(C)cc2NC(=O)c2cnn3cccnc23)c1 [Example 73, N-(3-(2-(difluoromethoxy)-5-(N-(2-hydroxyethyl)-N-methylsulfamoyl)phenyl)-1-methyl-1H-pyrazol-4-yl)pyrazolo[1,5-a]pyrimidine-3-carboxamide] as the molecule, how does the EC50 at 72 h [3] read?
**A.** Its EC50 at 72 h is at least 50000 nM.

**Q.** What about the “Mouse LTB %” value [1] of the same molecule?
**A.** Its value is 81.8%.

**Q.** And the Ki [2]?
**A.** The Ki was 0.21 nM.

**Q.** Which results are given for Cn1cc(NC(=O)c2cnn3cccnc23)c(-c2cc(S(=O)(=O)CCO)ccc2OC(F)F)n1 [Example 5, N-[3-[2-(difluoromethoxy)-5-(2-hydroxyethylsulfonyl)phenyl]-1-methyl-pyrazol-4-yl]pyrazolo[1,5-a]pyrimidine-3-carboxamide]?
**A.** EC50 at 72 h [3]: 45500 nM; Mouse LTB % [1]: 80.1%; Ki [2]: 0.19 nM

**Q.** For Cn1cc(S(=O)(=O)c2ccc(OC(F)F)c(-c3nn(C)cc3NC(=O)c3cnn4cccnc34)c2)cn1 [Example 35, N-[3-[2-(difluoromethoxy)-5-(1-methylpyrazol-4-yl)sulfonyl-phenyl]-1-methyl-pyrazol-4-yl]pyrazolo[1,5-a]pyrimidine-3-carboxamide], which EC50 at 72 h [3] is on record?
**A.** Its EC50 at 72 h is 22000 nM.

**Q.** And the “Lung tissue binding, %” value [1]?
**A.** The value was 86.2%.

**Q.** And the “Mouse LTB %” value [1]?
**A.** The value was 86.2%.

**Q.** And the Ki [2]?
**A.** The Ki was 0.19 nM.

**Q.** Which EC50 at 72 h [3] does the source give for Cn1cc(NC(=O)c2cnn3cccnc23)c(-c2cc3c(cc2OC(F)F)NCCS3(=O)=O)n1 [Example 46, N-[3-[6-(difluoromethoxy)-1,1-dioxo-3,4-dihydro-2H-1lambda6,4-benzothiazin-7-yl]-1-methyl-pyrazol-4-yl]pyrazolo[1,5-a]pyrimidine-3-carboxamide] here?
**A.** The EC50 at 72 h was at least 50000 nM.

**Q.** What about the “Mouse LTB %” value [1] of the same molecule?
**A.** The value was 89.9%.

**Q.** What about the Ki [2] of the same molecule?
**A.** Its Ki is 0.087 nM.

**Q.** With CC(CO)S(=O)(=O)c1ccc(OC(F)F)c(-c2nn(C)cc2NC(=O)c2cnn3cccnc23)c1 (single isomer, unassigned) [Example 23, N-[3-[2-(difluoromethoxy)-5-(2-hydroxy-1-methyl-ethyl)sulfonyl-phenyl]-1-methyl-pyrazol-4-yl]pyrazolo[1,5-a]pyrimidine-3-carboxamide] as the molecule, how does the EC50 at 72 h [3] read?
**A.** Its EC50 at 72 h is 28000 nM.

**Q.** What about the “Mouse LTB %” value [1] of the same molecule?
**A.** Its value is 82.1%.

**Q.** What about the Ki [2] of the same molecule?
**A.** Its Ki is 0.13 nM.

**Q.** Which results are given for Cn1cc(NC(=O)c2cnn3cccnc23)c(-c2cc(S(=O)(=O)c3ccncc3)ccc2OC(F)F)n1 [Example 16, N-[3-[2-(difluoromethoxy)-5-(4-pyridylsulfonyl)phenyl]-1-methyl-pyrazol-4-yl]pyrazolo[1,5-a]pyrimidine-3-carboxamide]?
**A.** EC50 at 72 h [3]: 7400 nM; Mouse LTB % [1]: 87.3%; Ki [2]: 0.19 nM
